# Test results as given in patent US20260216099A1, “BROMOQUINONE AS A TREATMENT FOR OBESITY AND CANCER” (priority 2023, published 2026).
# “Also recorded” adds a separate entry of the source.
# Tests used:
# INS-1 cell line = experiment: Cell growth inhibition (FIG. 4); type: cell-based, Rat; details: INS-1, highest concentration tested
# Protocol: (§1) FIGS. 4A, 4B, and 4C illustrate the effect of bromoquinone on cell growth of HEK293, HeLa, INS-1, and ADSC cells. […] Cells were stained with bisbenzimide.
# (§2) Cell Attachment Assay: For the cell attachment assay, Raw264.7 and L929 cells were pre-seeded (100,000 cells/well) in 12-well plates (overnight incubation) at 37° C. and 5% CO2. Bromoquinone was added 24 hours after pre-seeding, and cell attachment was determined by counting attached cells at 72 hours post-treatment. THP-1 cells were pre-seeded (100,000 cells/well) in the presence of 320 nM phorbol-12-myristate-13-acetate (PMA) in 12-well plates (overnight incubation) at 37° C. and 5% CO2. Bromoquinone was added 24 hours after pre-seeding, and cell attachment was determined by counting attached cells at 72 hours post-treatment. Raw264.7, L929, and THP-1 cells were cultured in 12-well plates (100,000 cells/well) in the presence of bromoquinone for 72 hours at 37° C. and 5% CO2. The live cell number was determined by Trypan Blue staining. HEK293 and HeLa cells were cultured in DMEM supplemented with 10% (v/v) fetal bovine serum and 1% (v/v) penicillin-streptomycin. INS-1 cells were cultured in RPMI 1640 media supplemented with 10% (v/v) FBS and 1% (v/v) penicillin-streptomycin. All the cells were incubated at 37° C. and 5% CO2 atmosphere in 10-cm plates. […]
# Redox potential = type: physicochemical; details: difference to Coenzyme Q10
# ARPE19 cells = experiment: Cell counting assay (Trypan Blue), cell growth; type: cell-based, Human; details: 48 hours
# Protocol: (§3) Cell Counting Assay: For the cell counting assay, rMc-1, ARPE-19, and HepG2 cells were cultured in DMEM with 4.5 g/L glucose supplemented with 10% fetal bovine serum (FBS), penicillin, and streptomycin. These cells were seeded at 50% confluency before bromoquinone treatment. About 5,000 cells were seeded in a 24-well plate and treated with various amounts of bromoquinone and incubated at 37° C. under 5% CO2. Cell growth was examined by cell counting stained with Trypan Blue. The Raw264.7 and L929 cells were cultured in DMEM supplemented with 10% (vol/vol) heat-inactivated FBS (SH30910.03; Hyclone) at 37° C. and 5% CO2. THP-1 cells were cultured in RPMI-1640 medium supplemented with 10% (v/v) heat-inactivated FBS at 37° C. and 5% CO2.
# (§4) When the cell lines (rM-1, ARPE-19 and Hep G2) were cultured for 48 hours in their corresponding media in the presence of various concentrations (0, 0.5, 2.5. 5, and 10 μM) of bromoquinone, the cell survival rate decreased as the concentration of bromoquinone increased. When the concentration of bromoquinone was 10 μM, the cell survival rate decreased by 70-80%, while under the same conditions, no effect on cell growth was observed if normal coenzyme Q or Q0C10 was used.
# Hep G2 cells = experiment: Cell counting assay (Trypan Blue), cell growth; type: cell-based, Human; details: for Effect of Bromoquinone on the Growth (cell survival, % of 0 μM): Hep G2 cells, 48 hours
# Protocol: as §3, §4
# [1] = Rat growth study: body weight gain, toxicity, food and water consumption; type: in vivo
# Protocol: 6-Br-Q0C10: Crude 6-Br-Q0C10 was available in the laboratory. It was further purified to homogeneity using thin layer chromatography. The purity of 6-Br-Q0C10 was confirmed by its absorption peak at 303 nm and the concentration was determined spectrophotometrically, using a millimolar extinction coefficient of 20 cm^−1 (13), Carboyxmethyl cellulose was obtained from Amazon. Olive oil and unsalted butter were obtained from the local supermarket. 9 Male F344 (born on Sep. 28, 2023) were purchased from Evigo RMS, Inc, 8520 Allison Pointe Blvd, Suite 4000, Indianapolis, Indiana 46250 on Oct. 17, 2023.
# The rats were divided into three groups, three rats in each group. We followed their growth by body weight gained daily until Nov. 5, 2023, and then one group of rats received the 6-Br-Q0C10 treatment, and the second group received only the carrier media used to dissolve the 6-Br-Q0C10, and the third group was used as control without any treatment. All rats had free access to rat chow and water.
# Various concentrations of 6-Br-Q0C10 were dissolved in 1% and 1.5% CMC, 40% ethanol, and a mixture of oil and unsalted butter (67:33). 6-Br-Q0C10 solutions and carriers were given to the rats by IG in a volume of 0.3 mL daily. The body weights of the rats were measured and recorded individually and as a group. JACUC Protocol No: SC2101
# ADSC cells = experiment: Cell growth by cell counting, Trypan Blue and hemocytometer (FIG. 4A); type: cell-based, Human
# Protocol: as §1
# (§5) Cell Attachment Assay: For the cell attachment assay, Raw264.7 and L929 cells were pre-seeded (100,000 cells/well) in 12-well plates (overnight incubation) at 37° C. and 5% CO2. Bromoquinone was added 24 hours after pre-seeding, and cell attachment was determined by counting attached cells at 72 hours post-treatment. THP-1 cells were pre-seeded (100,000 cells/well) in the presence of 320 nM phorbol-12-myristate-13-acetate (PMA) in 12-well plates (overnight incubation) at 37° C. and 5% CO2. Bromoquinone was added 24 hours after pre-seeding, and cell attachment was determined by counting attached cells at 72 hours post-treatment. Raw264.7, L929, and THP-1 cells were cultured in 12-well plates (100,000 cells/well) in the presence of bromoquinone for 72 hours at 37° C. and 5% CO2. The live cell number was determined by Trypan Blue staining. HEK293 and HeLa cells were cultured in DMEM supplemented with 10% (v/v) fetal bovine serum and 1% (v/v) penicillin-streptomycin. INS-1 cells were cultured in RPMI 1640 media supplemented with 10% (v/v) FBS and 1% (v/v) penicillin-streptomycin. All the cells were incubated at 37° C. and 5% CO2 atmosphere in 10-cm plates. When the cells reached about-80% confluency, they were harvested and cultured on 96-well plates with 5×10^3 cells seeded per well. For each cell line, three 96-well plates were prepared—one for MTT assay and two for bisbenzimide-based nuclear fluorescent stain assay. After 24-hour incubation, the culture medium was replaced by the same medium containing various concentrations (0, 4, 8, 16, 32, and 64 μM) of bromoquinone. Three replicates were made for each condition. The plates then continued to be incubated for another 24 hours (two plates) or 48 hours (one plate). One plate with 24-hour treatment was used for the MTT cell viability assay. The other 24-hour treatment plate and the 48-hour treatment plate were used for the Bisbenzimide-based nuclear fluorescent stain cell imaging.
# (§6) As described above, cell lines were cultured in their corresponding media in the presence of various concentrations of bromoquinone (0, 2, 4, 8, 16, 32, and 64 μM) for 48 and 72 hours. […] Similar results were obtained using the MTT assay (FIG. 4B). As expected, when the incubation was prolonged to 72 hours, more inhibition was observed.
# HeLa cells = experiment: as above; type: cell-based, Human
# Protocol: as §1, §5, §6
# HEK-293 cells = experiment: as above; type: cell-based, Human
# Protocol: as §1, §5, §6
# [2] = test system: rM-1, ARPE-19 and Hep G2 cell lines; experiment: Cell counting assay, statements for the three cell lines together; type: cell-based, Rat; Human; details: for effect on cell growth: same conditions as bromoquinone (up to 10 μM, 48 hours)
# Protocol: as §3, §4
# [3] = test system: L-929, Raw 264-7 and THP-1 cells; experiment: Cell growth, live cell number by Trypan Blue (FIG. 3A); type: cell-based, Mouse; Human
# Protocol: as §3
# Cell Attachment Assay: For the cell attachment assay, Raw264.7 and L929 cells were pre-seeded (100,000 cells/well) in 12-well plates (overnight incubation) at 37° C. and 5% CO2. Bromoquinone was added 24 hours after pre-seeding, and cell attachment was determined by counting attached cells at 72 hours post-treatment. […] Bromoquinone was added 24 hours after pre-seeding, and cell attachment was determined by counting attached cells at 72 hours post-treatment. […] The live cell number was determined by Trypan Blue staining. […]
# [4] = test system: L-929, Raw 264-7 and THP-1 cells; experiment: Cell attachment assay (FIG. 3B); type: cell-based, Mouse; Human; details: 72 hours post-treatment
# Protocol: as §2, with “plates. When the cells reached about-80% confluency, they were harvested and cultured on 96-well plates with 5×10^3 cells seeded per well.” for “plates.”
# [5] = test system: isolated beef liver mitochondria; experiment: Energy coupling (oxidative phosphorylation) in isolated mitochondria treated with bromoquinone; type: biochemical; details: NADH linked substrate; 2 instead of 3
# Protocol: Introducing an electron-withdrawing group such as bromine should have an effect on the redox potential and UV spectrum, and this is indeed the case. Bromoquinone has a higher redox potential than that of Coenzyme Q10, by about 30 mV and UV spectral shift by 24 nm. A decrease of approximately 30% of energy conservation efficiency has been observed in isolated mitochondria that were treated with bromoquinone. This decrease may be due to the loss of energy conservation site II at Complex III in the bromoquinone-treated mitochondria (2).
# When the rats were given 0.3 mL of a high fat mixture daily in addition to normal diet, a significant increase in weight gain was observed. […] Using NADH linked substrate 6-Br-Q0C10 treated mitochondria has a P/O ratio of 2 instead of 3. 6-Br-Q0C10 causes a by-passing of oxidative phosphorylation site 2 because of its high redox-potential.
# rMC-1 cells = experiment: Cell counting assay (Trypan Blue), cell growth; type: cell-based, Rat; details: 48 hours
# Protocol: as §3, §4
# [6] = test system: commercially available cell lines; experiment: Cell growth of commercially available cell lines (halogen-Q0C10); type: cell-based; details: many commercially available cell lines
structure (smiles),measurement,setting,value
"CCCCCCCCCCC1=C(Br)C(=O)C(OC)=C(OC)C1=O [6-Br-Q0C10, 6-Bromo-2,3-dimethoxy-5-decyl-1,4-benzoquinone]",inhibition (cell growth),INS-1 cell line,less than 20%
same,redox potential higher than that of Coenzyme Q10,Redox potential,about 30 mV
same,"Effect of Bromoquinone on the Growth (cell survival, % of 0 μM)",ARPE19 cells; 0.5 μM bromoquinone,85.4%
same,"Effect of Bromoquinone on the Growth (cell survival, % of 0 μM)",ARPE19 cells; 1 μM bromoquinone,80.9%
same,"Effect of Bromoquinone on the Growth (cell survival, % of 0 μM)",ARPE19 cells; 2.5 μM bromoquinone,60.0%
same,"Effect of Bromoquinone on the Growth (cell survival, % of 0 μM)",ARPE19 cells; 5 μM bromoquinone,41.9%
same,"Effect of Bromoquinone on the Growth (cell survival, % of 0 μM)",ARPE19 cells; 10 μM bromoquinone,26.6%
same,"Effect of Bromoquinone on the Growth (cell survival, % of 0 μM)",Hep G2 cells; 0.5 μM bromoquinone,103.1%
same,"Effect of Bromoquinone on the Growth (cell survival, % of 0 μM)",Hep G2 cells; 1 μM bromoquinone,107.8%
same,"Effect of Bromoquinone on the Growth (cell survival, % of 0 μM)",Hep G2 cells; 2.5 μM bromoquinone,104.2%
same,"Effect of Bromoquinone on the Growth (cell survival, % of 0 μM)",Hep G2 cells; 5 μM bromoquinone,98.1%
same,"Effect of Bromoquinone on the Growth (cell survival, % of 0 μM)",Hep G2 cells; 10 μM bromoquinone,93.3%
same,effect on Hep-G2 (cell growth),Hep G2 cells; even at 10 μM,very small
same,food and water consumption,[1]; 6-Br-Q0C10 treated rats,slight increase
same,reduction in body weight gain,"[1]; rats, 0.5 mg/IG in 0.3 mL oil/butter (67%/33%) daily, compared to carrier mixture only",30-40%
same,toxicity effect on rats,"[1]; rats, even at the highest concentrations used",no toxicity effect
same,effect on growth (body weight gain),"[1]; rats, low concentrations, growth period",little effect; also recorded: slight
same,toxicity,"[1]; rats, lower concentrations",no toxicity
same,"inhibition (cell growth, cell counting)","ADSC cells; 48 hours of treatment, FIG. 4A",82%
same,inhibition (cell growth),ADSC cells; 72 hours,90%
same,"inhibition (cell growth, cell counting)","HeLa cells; 48 hours of treatment, FIG. 4A",66%
same,inhibition (cell growth),HeLa cells; 72 hours,97%
same,"inhibition (cell growth, cell counting)","HEK-293 cells; HEK-293, 48 hours of treatment, FIG. 4A",69%
same,inhibition (cell growth),"HEK-293 cells; HEK-293, 72 hours",95%
same,decrease of cell survival rate,"[2]; 10 μM, 48 hours",70-80%
same,inhibition at 50 µM,[3],≤ 50%
same,inhibition at 50 µM,[4],70%
same,P/O ratio,[5],2
same,"Effect of Bromoquinone on the Growth (cell survival, % of 0 μM)",rMC-1 cells; 0.5 μM bromoquinone,88.2%
same,"Effect of Bromoquinone on the Growth (cell survival, % of 0 μM)",rMC-1 cells; 1 μM bromoquinone,80.1%
same,"Effect of Bromoquinone on the Growth (cell survival, % of 0 μM)",rMC-1 cells; 2.5 μM bromoquinone,68.1%
same,"Effect of Bromoquinone on the Growth (cell survival, % of 0 μM)",rMC-1 cells; 5 μM bromoquinone,36.2%
same,"Effect of Bromoquinone on the Growth (cell survival, % of 0 μM)",rMC-1 cells; 10 μM bromoquinone,27.9%
"CCCCCCCCCCC1=C(Cl)C(=O)C(OC)=C(OC)C1=O [6-Cl-Q0C10, 6-Chloro-2,3-dimethoxy-5-decyl-1,4-benzoquinone]",reducing cell growth,[6],effective in reducing cell growth
"CCCCCCCCCCC1=C(C)C(=O)C(OC)=C(OC)C1=O [Q0C10, 2,3-dimethoxy-5-decyl-6-methyl-1,4-benzoquinone]",effect on cell growth,[2],no effect
"COC1=C(OC)C(=O)C(CC=C(C)CCC=C(C)CCC=C(C)CCC=C(C)CCC=C(C)CCC=C(C)CCC=C(C)CCC=C(C)CCC=C(C)CCC=C(C)C)=C(C)C1=O [coenzyme Q10, 2,3-dimethoxy-5-(isoprenyl)10-6-methyl-1,4-benzoquinone]",effect on cell growth,[2],no effect
